In the NIST ThermoML archive (doi:10.1016/j.jct.2010.08.019):

Assay: refractive index (Na D-line) (dimensionless); xn = mol fraction of the nth substance listed
Conditions: 101 kPa, Liquid, Standard Abbe refractometry

CC(C)CC(C)(C)C [2,2,4-trimethylpentane] + CC(C)O
Conditions	refractive index
293.15 K, x2 = 0.2501	1.41104
293.15 K, x2 = 0.3003	1.40906
293.15 K, x2 = 0.3502	1.40701
293.15 K, x2 = 0.4004	1.40497
293.15 K, x2 = 0.4502	1.4029
293.15 K, x2 = 0.5001	1.40079
293.15 K, x2 = 0.55	1.39865
293.15 K, x2 = 0.5998	1.39647
293.15 K, x2 = 0.6502	1.39422
293.15 K, x2 = 0.7002	1.39194
293.15 K, x2 = 0.7499	1.38965
293.15 K, x2 = 0.7999	1.38727
293.15 K, x2 = 0.85	1.38486
293.15 K, x2 = 0.8999	1.38241
293.15 K, x2 = 0.95	1.37993
303.15 K, x2 = 0	1.41599
303.15 K, x2 = 0.05	1.41398
303.15 K, x2 = 0.1	1.41198
303.15 K, x2 = 0.1499	1.41
303.15 K, x2 = 0.2004	1.408
303.15 K, x2 = 0.2497	1.40602
303.15 K, x2 = 0.3	1.40405
303.15 K, x2 = 0.3499	1.40202
303.15 K, x2 = 0.4008	1.40001
303.15 K, x2 = 0.4503	1.39797
303.15 K, x2 = 0.5	1.3959
303.15 K, x2 = 0.5498	1.3938
303.15 K, x2 = 0.6001	1.39166
303.15 K, x2 = 0.65	1.38947
303.15 K, x2 = 0.7001	1.38724
303.15 K, x2 = 0.7495	1.38498
303.15 K, x2 = 0.7989	1.38267
303.15 K, x2 = 0.8499	1.3803
303.15 K, x2 = 0.8997	1.37788
303.15 K, x2 = 0.95	1.37545
313.15 K, x2 = 0	1.41092
313.15 K, x2 = 0.0499	1.40889
313.15 K, x2 = 0.1001	1.40693
313.15 K, x2 = 0.1503	1.40494
313.15 K, x2 = 0.2001	1.40299
313.15 K, x2 = 0.2499	1.40102
313.15 K, x2 = 0.3003	1.39906
313.15 K, x2 = 0.3497	1.39707
313.15 K, x2 = 0.4	1.39507
313.15 K, x2 = 0.4502	1.39301
313.15 K, x2 = 0.5005	1.39098
313.15 K, x2 = 0.5499	1.38891
313.15 K, x2 = 0.6	1.38681
313.15 K, x2 = 0.6498	1.38469
313.15 K, x2 = 0.6999	1.38251
313.15 K, x2 = 0.75	1.38031
313.15 K, x2 = 0.7998	1.37808
313.15 K, x2 = 0.8498	1.37578
313.15 K, x2 = 0.8999	1.37345
313.15 K, x2 = 0.9499	1.37107
323.15 K, x2 = 0	1.40554
323.15 K, x2 = 0.0501	1.40351
323.15 K, x2 = 0.1	1.40154
323.15 K, x2 = 0.15	1.39952
323.15 K, x2 = 0.1998	1.39757
323.15 K, x2 = 0.25	1.39566
323.15 K, x2 = 0.3	1.39368
323.15 K, x2 = 0.35	1.39173
323.15 K, x2 = 0.4	1.38974
323.15 K, x2 = 0.4499	1.38775
323.15 K, x2 = 0.5	1.38572
323.15 K, x2 = 0.5501	1.38366
323.15 K, x2 = 0.6	1.38161
323.15 K, x2 = 0.65	1.37953
323.15 K, x2 = 0.7	1.37741
323.15 K, x2 = 0.7499	1.37522
323.15 K, x2 = 0.7999	1.37303
323.15 K, x2 = 0.85	1.3708
323.15 K, x2 = 0.9	1.36851
323.15 K, x2 = 0.95	1.36617

C1CCOCC1 [tetrahydropyran] + CC(C)CC(C)(C)C
Conditions	refractive index
293.15 K, x1 = 0.0502	1.39259
293.15 K, x1 = 0.1	1.39359
293.15 K, x1 = 0.1499	1.39461
293.15 K, x1 = 0.2	1.39567
293.15 K, x1 = 0.25	1.39677
293.15 K, x1 = 0.3	1.39792
293.15 K, x1 = 0.35	1.39911
293.15 K, x1 = 0.4	1.40036
293.15 K, x1 = 0.4498	1.40167
293.15 K, x1 = 0.5001	1.40303
293.15 K, x1 = 0.5501	1.40446
293.15 K, x1 = 0.5999	1.40595
293.15 K, x1 = 0.6501	1.40753
293.15 K, x1 = 0.6999	1.40917
293.15 K, x1 = 0.75	1.41092
293.15 K, x1 = 0.8	1.41274
293.15 K, x1 = 0.8501	1.41468
293.15 K, x1 = 0.9	1.4167
293.15 K, x1 = 0.95	1.41885
293.15 K, x1 = 1	1.42109
303.15 K, x1 = 0.0502	1.38756
303.15 K, x1 = 0.1	1.38853
303.15 K, x1 = 0.1499	1.38953
303.15 K, x1 = 0.2	1.39057
303.15 K, x1 = 0.25	1.39166
303.15 K, x1 = 0.2999	1.39279
303.15 K, x1 = 0.3498	1.39399
303.15 K, x1 = 0.3998	1.39524
303.15 K, x1 = 0.4498	1.39654
303.15 K, x1 = 0.5001	1.3979
303.15 K, x1 = 0.5501	1.39932
303.15 K, x1 = 0.5999	1.40081
303.15 K, x1 = 0.6501	1.40239
303.15 K, x1 = 0.6999	1.40403
303.15 K, x1 = 0.75	1.40577
303.15 K, x1 = 0.8	1.4076
303.15 K, x1 = 0.8501	1.40954
303.15 K, x1 = 0.9	1.41158
303.15 K, x1 = 0.95	1.41373
303.15 K, x1 = 1	1.41599
313.15 K, x1 = 0.0501	1.38237
313.15 K, x1 = 0.1002	1.38334
313.15 K, x1 = 0.1501	1.38433
313.15 K, x1 = 0.1999	1.38537
313.15 K, x1 = 0.2501	1.38645
313.15 K, x1 = 0.3	1.38759
313.15 K, x1 = 0.3499	1.38877
313.15 K, x1 = 0.4002	1.39001
313.15 K, x1 = 0.4502	1.39131
313.15 K, x1 = 0.4999	1.39266
313.15 K, x1 = 0.5499	1.39409
313.15 K, x1 = 0.6	1.39559
313.15 K, x1 = 0.65	1.39716
313.15 K, x1 = 0.6998	1.39881
313.15 K, x1 = 0.75	1.40055
313.15 K, x1 = 0.8001	1.40239
313.15 K, x1 = 0.8501	1.40432
313.15 K, x1 = 0.9001	1.40638
313.15 K, x1 = 0.9498	1.40857
313.15 K, x1 = 1	1.41092
323.15 K, x1 = 0.0501	1.37719
323.15 K, x1 = 0.1002	1.37814
323.15 K, x1 = 0.1501	1.37913
323.15 K, x1 = 0.1999	1.38015
323.15 K, x1 = 0.2501	1.38122
323.15 K, x1 = 0.3	1.38233
323.15 K, x1 = 0.3499	1.38349
323.15 K, x1 = 0.4002	1.38471
323.15 K, x1 = 0.45	1.38599
323.15 K, x1 = 0.5002	1.38733
323.15 K, x1 = 0.55	1.38874
323.15 K, x1 = 0.5997	1.39022
323.15 K, x1 = 0.65	1.39179
323.15 K, x1 = 0.6998	1.39343
323.15 K, x1 = 0.75	1.39518
323.15 K, x1 = 0.8001	1.39701
323.15 K, x1 = 0.8501	1.39895
323.15 K, x1 = 0.9002	1.40101
323.15 K, x1 = 0.95	1.40319
323.15 K, x1 = 1	1.40554
